Results published in US7741032B2, “Genotyping assay to predict gamma glutamyl hydrolase (GGH) activity” (St. Jude Children's Research Hospital, Inc., priority 2004, dated 2010).

Experiments:
[1] = biological target: T1, GGH (Homo sapiens, UniProt Q92820, T151I); details: MTXPG2 as the substrate; reported by Chave et al. 2003; cited from earlier work
T1 sequence (Q92820 25-318 T151I): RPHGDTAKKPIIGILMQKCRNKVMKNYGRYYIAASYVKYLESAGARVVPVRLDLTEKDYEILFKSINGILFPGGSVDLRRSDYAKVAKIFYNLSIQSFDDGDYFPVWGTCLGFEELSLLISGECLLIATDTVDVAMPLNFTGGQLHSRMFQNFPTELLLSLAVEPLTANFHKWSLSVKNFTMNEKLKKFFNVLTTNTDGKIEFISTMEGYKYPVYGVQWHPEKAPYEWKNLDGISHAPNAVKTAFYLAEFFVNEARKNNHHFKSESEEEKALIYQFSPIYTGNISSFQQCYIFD

[2] = biological target: T2, T127I variant GGH (Homo sapiens, UniProt Q92820, T151I); assay: Enzyme kinetic analysis of heterologously expressed wild-type and T127I variant GGH with MTX-PG as substrate; type: biochemical; details: recombinant GGH, substrate as labelled; for catalytic efficiency (Vmax/Km) reduction of T127I variant: versus wild-type, p=0.003
T2 construct: A cDNA encoding the 294 amino acids of human GGH (with out leading peptide) was cloned by RT-PCR; made in house; host or cells: E. coli BL21(DE3)pLysS
T2 sequence (Q92820 25-318 T151I): T1 sequence (Q92820 25-318 T151I)
Method: Wild-type human GGH cloning and site-directed mutagenesis: A cDNA encoding the 294 amino acids of human GGH (with out leading peptide) was cloned by RT-PCR and TA cloning (Invitrogen, Carlsbad, Calif.) using RNA isolated from human CEM cells. Plasmid DNA was purified using the mini prep kit (Qiagen, Santa Clarita, Calif.). After sequencing, the selected cDNA clone was subcloned into the pET28b vector (Novagen, Madison, Wis.) from Nde1 and BamH1 sites, and an N-terminal HisTag was added. This HisTag enabled the purification of large quantities of protein and had no effect on GGH activity (Chave, K. J. et al., 2000, id). Site-directed mutagenesis was performed with the QuickChange II kit (Stratagene, La Jolla, Calif.) according to the manufacturer's protocol. The primers used for mutagenesis of wild-type human GGH to T127I were
Expression and characterization of T127I variant GGH: Plasmids carrying wild-type and T127I variant GGH were used to transform E. coli strain BL21(DE3)pLysS competent cells (Novagen, Madison, Wis.). The E. coli cells were grown in LB medium containing 30 μg/ml kanamycin and 34 μg/ml chloramphenicol at 37° C. to OD600 about 0.6 and expression was induced with 1 mM isopropyl-β-D-thiogalactoside for 3 h. Cells were harvested by centrifugation at 5,000 g for 5 min at 4° C., and were kept as a frozen pellet at −70° C. Target proteins were extracted using BugBuster His-Bind Purification kit (Novagen, Madison, Wis.), followed by gel filtration chromatography at 4° C. on a HiLoad 26/60 S200 Superdex column (Amersham Pharmacia Biotech, Sweden) in 0.05 M sodium acetate buffer, pH5.5, containing 0.05 M 2-mercaptoethanol, 1 M NaCl, and 1 mM EDTA. Fractions containing target proteins were pooled and proteins were concentrated using Viva Cell 70 ml Concentrator, followed by Viva Cpin 2 ml Concentrator (Vivascience, Edgewood, NY).
Wild-type and T127I variant forms of human GGH were separated using NuPAGE™ 4-12% Bis-Tris Gel (Invitrogen, Carlsbad, Calif.). Protein bands were visualized by silver staining (Amersham Pharmacia Biotech, Sweden). Western blot was carried out as described (Tai, H. L. et al., “Thiopurine S-methyltransferase deficiency: two nucleotide transitions define the most prevalent mutant allele associated with loss of catalytic activity in Caucasians” Am J Hum Genet 58:694-702 (1996)). Polyclonal anti-human GGH rabbit antibody was kindly provided by Drs Thomas J. Ryan and […]. GGH activity was measured using MTEN buffer with 25 mM DTT. The assay mixture without substrate was incubated at 37° C. for 20 min, followed by incubation with substrate at 37° C. for 5 min and boiling for 5 min. In each experiment, wild-type and variant GGH were analyzed in parallel using varying concentrations of MTX-PG5 or MTX-PG2 as substrate. The substrate and the reaction products were analyzed by HPLC, and GGH activity was calculated by total amount of product formed per min per μg protein. Two independent experiments were carried on with each substrate. Nonlinear least-squares regression was used to estimate Km and Vmax by fitting a Michaels-Menten model as described earlier (Panetta, J. C. et al., id).

| difference in Km between the wild-type and T127I variant [2] | difference in Vmax between the wild-type and T127I variant [2] | difference in catalytic efficiency between the wild-type and T127I variant [2] | Km increase of T127I variant compared to wild-type GGH ([2]; p=0.021) [fold] | catalytic efficiency (Vmax/Km) reduction of T127I variant [2] [%] | catalytic efficiency (Vmax/Km) reduction of T127I variant ([2]; listed as MTXPG5) [%] | Structure (SMILES) | effect of T127I mutation on GGH activity [1] |
| --- | --- | --- | --- | --- | --- | --- | --- |
| not a significant difference | not a significant difference | not a significant difference | – | – | – | CN(Cc1cnc2nc(N)nc(N)c2n1)c1ccc(C(=O)N[C@@H](CCC(=O)N[C@@H](CCC(=O)O)C(=O)O)C(=O)O)cc1 [MTX-PG2] | did not change GGH activity |
| – | not a significant difference | – | 2.7 | 67 | 67.5 | CN(Cc1cnc2nc(N)nc(N)c2n1)c1ccc(C(=O)N[C@@H](CCC(=O)N[C@@H](CCC(=O)N[C@@H](CCC(=O)N[C@@H](CCC(=O)N[C@@H](CCC(=O)O)C(=O)O)C(=O)O)C(=O)O)C(=O)O)C(=O)O)cc1 [MTX-PG5] | – |
